# Assays:
# [1] = tested on: animal model with osteoporosis; assay: blood biochemical analysis of bone resorption and bone formation markers (CTX, ALP, RANKL) in animal model with osteoporosis; type: in vivo, mouse; conditions: 4-HR periodically applied to the skin
# Experimental: To evaluate the effect of 4-hexylresorcinol (4-HR) on bone resorption and promoting bone formation, the levels of CTX, ALP, and RANKL in an animal model with osteoporosis were measured via blood biochemical analysis. CTX is used as a marker for evaluating the degree of bone resorption (bone destruction) in the blood, ALP is a marker that indicates the degree of bone formation secreted by osteoblasts, and RANKL is used as a marker that is secreted from osteoblasts and promotes differentiation of osteoclasts.
# osteoblasts (MC3T3-E1) = assay: osteoblast differentiation by alkaline phosphatase (ALP) and Alizarin red staining; type: cell-based, mouse; conditions: MC3T3-E1 cells, 4-HR 10^−9 M to 10^−6 M (ALP, 7 days) or 10^−9 M to 10^−4 M (Alizarin red, 14-21 days)
# Experimental: MC3T3-E1 (mouse calvaria osteoblast cell line) cells were cultured in α-MEM containing 10% (v/v) FBS, penicillin (100 units/ml), and streptomycin (100 units/ml) using a constant temperature and humidity incubator in the presence of 5% (v/v) CO2 at 37° C. When the culture dish was filled with osteoblasts with 100% confluency, 50 μg/ml of ascorbic acid and 10 mM of β-glycerophosphate were treated to induce cell differentiation. During cell differentiation, the differentiation medium was replaced every 3 days.
# MC3T3-E1 and bone marrow stem cells were inoculated into a 48-well multi-plate at 5×10^4 cells/well, and culture was performed for 7 days with treatment of 4-hexylresorcinol (4-HR) at a concentration of 10^−9 M to 10^−6 M while a differentiation induction medium was replaced every 2 days. After the culture, cells were washed with PBS three times, and a fixative containing 5 ml of citrate acid, 13 ml of acetone, and 1.6 ml of a formaldehyde solution was treated for 45 seconds. Then, the cells were washed twice with PBS, treated with an alkaline-dye mixture, and reacted at room temperature in the darkness for 30 minutes. After removing the solution, cells were washed several times with PBS and observed under a microscope. […]
# [2] = tested on: osteoporosis (OVX) induced mice; assay: micro-CT analysis of femur bone in ovariectomy (OVX) osteoporosis mouse model after 4-HR ointment application; type: in vivo; conditions: ointment containing 2% 4-HR applied to dorsal skin for 4 weeks, compared to osteoporosis (OVX) induced mice
# Experimental: After separating the mouse femur and removing muscle, fixation was performed using 4% PFA at 4° C. for a day. The next day, washing was followed three times with PBS solution to be stored in PBS. The femur stored thereby was analyzed with a Skysan 1272 (Bruker, Massachusetts, USA) model by scanning, in units of 6 μm, the section from 1.6 mm to 2.3 mm below the growth plate. Using micro-CT, during the measurement of trabecular bone volume/tissue volume (BV/TV), trabecular thickness (Tb.Th), trabecular number (Tb.N), trabecular separation (Tb.Sp), and trabecular bone mineral density (BMD), bone volume/tissue volume (BV/TV) and bone mineral density (BMD) of cortical bone was measured as well.
# To evaluate the effect of 4-hexylresorcinol (4-HR) on bone remodeling, the ointment containing 2% 4-HR was applied to the mouse dorsal skin for 4 weeks after induction of osteoporosis via ovariectomy (OVX) in a model with osteoporosis, and the change in bone volume was analyzed by micro-CT.
# osteoclasts [3] = assay: osteoclast differentiation by TRAP staining; type: cell-based; set-up: dose or concentration left out as unconfirmed; conditions: mouse bone marrow cells with M-CSF and RANKL, 4 days, 4-HR
# Experimental: Mouse bone marrow monocyte (BMM) cells were isolated from the femur and tibia in 8-week-old mice. Muscle was removed after the separation of the femur and tibia from the mice euthanized by cervical dislocation, both ends were cut out, and α-MEM was filtered with a syringe to separate bone marrow cells. After centrifuging the isolated bone marrow cells, red blood cell lysis solution was added to hemolyze red blood cells, and then culture was performed for a day in the α-MEM containing 10% (v/v) FBS, penicillin (100 units/ml), and streptomycin (100 units/ml) using the constant temperature and humidity incubator in the presence of 5% (v/v) CO2 at 37° C. Only suspending cells not adhering to the culture dish were collected, treated with 20 ng/ml of M-CSF, and cultured for 3 days to obtain bone marrow-derived monocyte/macrophage. In an attempt to differentiate macrophages into osteoclasts, 20 ng/ml of M-CSF and 30 ng/ml of RANKL were treated, followed by culture for 4 days. Media were replaced every 2 days while differentiation was induced.
# Medullary mononuclear cells isolated from the femur and tibia of mice were treated with 20 ng/ml of M-CSF and reacted for a day. […]
# osteoclasts [4] = assay: osteoclastic activity by Pit assay on bone slices; type: cell-based, mouse; conditions: differentiated osteoclasts on bone slices, treated with 4-HR for 2 days
# Experimental: Monocytes were sterilized and inoculated on bone slices placed on a 96-well plate, followed by culture for 3 days in the presence of RANKL (30 ng/ml) and M-CSF (30 ng/ml). After 3 days, the differentiated osteoclasts were treated with 4-hexylresorcinol (4-HR), and a culture was performed for 2 days. After 2 days of culture, osteoclasts were removed and bone slices were reacted with horseradish peroxidase-wheat germ agglutinin (Sigma-Aldrich) and then stained with 3,3′-diaminobenzidine (Sigma-Aldrich). Stained cells were analyzed according to the manufacturer's method using a Java-based image analysis program (ImageJ).
# To evaluate the effect of 4-hexylresorcinol (4-HR) on the differentiation and activity of osteoclasts, 4-hexylresorcinol (4-HR) was treated on osteoclasts, and cell differentiation and osteoclastic activity were checked by TRAP staining and PIT assay analysis.
smiles,measurement,setting,value
"CCCCCCc1ccc(O)cc1O [4-hexylresorcinol (4-HR), 4-hexylbenzene-1,3-diol]",level of ALP (bone formation marker in blood),[1],increased
same,level of CTX (bone resorption marker in blood),[1],decreased
same,differentiation of osteoblasts (ALP and Alizarin red staining),osteoblasts (MC3T3-E1),differentiation was promoted
same,bone density,[2],increased
same,bone volume,[2],increased
same,trabecular number,[2],increased
same,trabecular thickness,[2],increased
same,differentiation of osteoclasts (TRAP staining),osteoclasts [3],inhibited
same,osteoclastic activity (PIT assay),osteoclasts [4],inhibited
